Experimental data as given in patent publication US12595275B2, “Fluorine-containing compound and anti-cancer medical use thereof” (ASCENTAWITS PHARMACEUTICALS, LTD., priority 2019, dated 2026).
Like-named read-outs stand apart in the source and are kept apart here.

Legend:
H460 cancer cells = test: H460 proliferation assay in the presence of the specific AKR1C3 enzyme inhibitor TH-3021; format: cell-based, human; settings: AKR1C3 inhibitor TH-3021 at 3 micromolar, added two hours before compound treatment, read-out: IC50 (nM) obtained when the AKR1C3 inhibitor TH-3021 was added
Method: (§1) Specifically, exponentially growing cells were seeded at a density of 4×10^3 cells per well in a 96 well plate and incubated at 37° C. in 5% CO2, 95% air and 100% relative humidity for 24 hours prior to addition of test compounds. Compounds were solubilized in 100% DMSO at 200 times the desired final test concentration. At the time of drug addition, compounds were further diluted to 4 times the desired final concentration with complete medium. Aliquots of 50 μl of compound at specified concentrations were added to microtiter wells already containing 150 μl of medium, resulting in the final drug concentration reported. After drug addition, the plates were incubated for an additional 2 hours at 37° C., 5% CO2, 95% air, and 100% relative humidity, then the drug was washed off and fresh medium was added and the plates were incubated for addition 70 hrs at 37° C., 5% CO2, 95% air and 100% relative humidity. At the end of this incubation, the viable cells were quantified using the AlamarBlue assay.
Similarly, in order to further verify that the compounds are activated by human AKR1C3 ([…] family 1 member C3), the effect of some of the compounds on the proliferation of H460 cancer cells was tested in the presence of a specific AKR1C3 enzyme inhibitor (at 3 micromolar concentration). The inhibitor-added compound solution was added to the cell culture two hours before the treatment with the compound. The inhibitor used was compound 36, i.e.,
[drawing 17] (TH-3021) in Flanagan et al., Bioorganic and Medicinal Chemistry (2014), pages 962-977.

[1] = test system: H460 non-small cell lung cancer human tumor cell line; test: In vitro human tumor cell line cytotoxicity (proliferation) assay, H460; format: cell-based; settings: NCI-H460, H460 cells, 2 hrs compound exposure, wash, additional 70 hrs incubation, AlamarBlue
Method: In vitro human tumor cell line cytotoxicity assays.
In vitro proliferation data on the H460 non-small cell lung cancer human tumor cell line is reported below in the compound table.
as §1

Row | SMILES | IC50 (H460 cancer cells) [nM] | IC50 [1] [nM] | IC50 (H460 cancer cells; Homo sapiens, NCI-H460, 2 h) [nM]
1 | CN(C)C(=O)c1ccc(Oc2cc(COc3c(F)cc(COP(=O)(N4CC4)N4CC4)cc3F)ccc2[N+](=O)[O-])cc1 [Compound No. 1] | 460 | 1.97 | 
2 | CN(C)C(=O)c1ccc(Oc2cc(COc3c(F)c(F)c(COP(=O)(N4CC4)N4CC4)c(F)c3F)ccc2[N+](=O)[O-])cc1 [Compound No. 2] | > 1000 | 0.352 | 
3 | CN(C)C(=O)c1cccc(Oc2cc(COc3c(F)c(F)c(COP(=O)(N4CC4)N4CC4)c(F)c3F)ccc2[N+](=O)[O-])c1 [Compound No. 3] | > 1000 | 0.417 | 
4 | O=[N+]([O-])c1ccc(COc2c(F)cc(COP(=O)(N3CC3)N3CC3)cc2F)cc1Oc1ccc(C(F)(F)F)cc1 [Compound No. 4] | > 1000 | 9.31 | 
5 | O=[N+]([O-])c1ccc(COc2c(F)cc(COP(=O)(N3CC3)N3CC3)cc2F)cc1Oc1ccc(Cl)nc1 [Compound No. 5] | 228 | 5.87 | 
6 | CN(C)C(=O)c1cccc(Oc2cc(C(OP(=O)(N3CC3)N3CC3)C(F)(F)F)ccc2[N+](=O)[O-])c1 (stereo not shown) [Compound No. 6] | 813 | 1.27 | 
7 | O=[N+]([O-])c1ccc(C(OP(=O)(N2CC2)N2CC2)C(F)(F)F)cc1Oc1ccc(C(F)(F)F)cc1 (stereo not shown) [Compound No. 7] | > 1000 | 25.6 | 
8 | O=[N+]([O-])c1ccc(COc2c(F)c(F)c(COP(=O)(N3CC3)N3CC3)c(F)c2F)cc1Oc1ccc(C(F)(F)F)cc1 [Compound No. 8] | > 1000 | 0.526 | 
9 | O=[N+]([O-])c1ccc(C(OP(=O)(N2CC2)N2CC2)C(F)(F)F)cc1Oc1ccc(-c2ccc(F)cc2)cc1 (stereo not shown) [Compound No. 9] | > 1000 | 18.4 | 
10 | O=[N+]([O-])c1ccc(C(OP(=O)(N2CC2)N2CC2)C(F)(F)F)cc1Oc1ccc(OC(F)(F)F)cc1 (stereo not shown) [Compound No. 11] | > 1000 | 137 | 
11 | O=[N+]([O-])c1ccc(C(OP(=O)(N2CC2)N2CC2)C(F)(F)F)cc1Oc1ccc(F)c(C(F)(F)F)c1 (stereo not shown) [Compound No. 12] | > 1000 | 87.3 | 
12 | O=[N+]([O-])c1ccc(C(OP(=O)(N2CC2)N2CC2)C(F)(F)F)cc1Oc1cnc2ccccc2c1 (stereo not shown) [Compound No. 13] | > 1000 | 42.2 | 
13 | O=[N+]([O-])c1ccc(C(OP(=O)(N2CC2)N2CC2)C(F)(F)F)cc1Oc1cccc(-c2ccc(F)cc2)c1 (stereo not shown) [Compound No. 14] | > 1000 | 30 | 
14 | O=[N+]([O-])c1ccc(C(OP(=O)(N2CC2)N2CC2)C(F)(F)F)cc1Oc1ccc(-c2ccc(F)cc2F)cc1 (stereo not shown) [Compound No. 15] |  | 11.4 | > 1000
15 | O=[N+]([O-])c1ccc(C(OP(=O)(N2CC2)N2CC2)C(F)(F)F)cc1Oc1ccc(-c2ccc(F)cc2)c(F)c1 (stereo not shown) [Compound No. 16] | > 1000 | 6.78 | 
16 | O=[N+]([O-])c1ccc(C(OP(=O)(N2CC2)N2CC2)C(F)(F)F)cc1Oc1ccc(-c2ccc(F)cc2F)c(F)c1 (stereo not shown) [Compound No. 17] | > 1000 | 7.26 | 
17 | O=[N+]([O-])c1ccc(C(OP(=O)(N2CC2)N2CC2)C(F)(F)F)cc1Oc1ccc(-c2ccc(F)cc2)nc1 (stereo not shown) [Compound No. 18] | > 1000 | 35.5 | 
18 | O=[N+]([O-])c1ccc(C(OP(=O)(N2CC2)N2CC2)C(F)(F)F)cc1Oc1ccc(-c2ccc(C(F)(F)F)cc2)nc1 (stereo not shown) [Compound No. 19] | > 1000 | 313 | 
19 | O=[N+]([O-])c1ccc(C(OP(=O)(N2CC2)N2CC2)C(F)(F)F)cc1Oc1ccc(-c2ccc(F)cn2)cc1 (stereo not shown) [Compound No. 20] | > 1000 | 46.8 | 
20 | O=C(c1cccc(Oc2cc(C(OP(=O)(N3CC3)N3CC3)C(F)(F)F)ccc2[N+](=O)[O-])c1)N1CCCCC1 (stereo not shown) [Compound No. 21] | 176 | 6.98 | 
21 | O=C(c1cccc(Oc2cc(C(OP(=O)(N3CC3)N3CC3)C(F)(F)F)ccc2[N+](=O)[O-])c1)N1CCC(F)(F)CC1 (stereo not shown) [Compound No. 22] | 139 | 1.37 | 

Row | SMILES | IC50 (H460 cancer cells) [nM] | IC50 [1] [nM] | IC50 (H460 cancer cells; Homo sapiens, NCI-H460, 2 h) [nM]
22 | O=C(c1cccc(Oc2cc(C(OP(=O)(N3CC3)N3CC3)C(F)(F)F)ccc2[N+](=O)[O-])c1)N1CCCC1 (stereo not shown) [Compound No. 23] | 795 | 6.04 | 
23 | CC1(C)CCN(C(=O)c2cccc(Oc3cc(C(OP(=O)(N4CC4)N4CC4)C(F)(F)F)ccc3[N+](=O)[O-])c2)CC1 (stereo not shown) [Compound No. 24] | > 1000 | 4.33 | 
24 | O=C(c1cccc(Oc2cc(C(OP(=O)(N3CC3)N3CC3)C(F)(F)F)ccc2[N+](=O)[O-])c1)N1CCC(C(F)(F)F)CC1 (stereo not shown) [Compound No. 25] | 179 | 1.86 | 
25 | O=C(c1cccc(Oc2cc(C(OP(=O)(N3CC3)N3CC3)C(F)(F)F)ccc2[N+](=O)[O-])c1)N1CCC(O)CC1 (stereo not shown) [Compound No. 26] | 175 | 1.2 | 
26 | CN(C)C(=O)c1ccc(Oc2cc(C(OP(=O)(N3CC3)N3CC3)C(F)(F)F)ccc2[N+](=O)[O-])cc1 (stereo not shown) [Compound No. 27] | > 1000 | 9.32 | 
27 | O=C(c1ccc(Oc2cc(C(OP(=O)(N3CC3)N3CC3)C(F)(F)F)ccc2[N+](=O)[O-])cc1)N1CCCCC1 (stereo not shown) [Compound No. 28] | 649 | 2.36 | 
28 | O=C(c1ccc(Oc2cc(C(OP(=O)(N3CC3)N3CC3)C(F)(F)F)ccc2[N+](=O)[O-])cc1)N1CCC(C(F)(F)F)CC1 (stereo not shown) [Compound No. 29] | > 1000 | 60.1 | 
29 | O=C(c1ccc(Oc2cc(C(OP(=O)(N3CC3)N3CC3)C(F)(F)F)ccc2[N+](=O)[O-])cc1)N1CCC(c2ccccc2)CC1 (stereo not shown) [Compound No. 30] | > 1000 | 79.9 | 
30 | CN(C)C(=O)c1ccc(Oc2cc(COc3cc(F)c(COP(=O)(N4CC4)N4CC4)cc3Cl)ccc2[N+](=O)[O-])cc1 [Compound No. 34] | > 1000 | 38.5 | 
31 | O=C(c1cccc(Oc2cc(COc3c(F)cc(COP(=O)(N4CC4)N4CC4)cc3F)ccc2[N+](=O)[O-])c1)N1CC(F)C1 [Compound No. 36] | 238 | < 4.37 | 
32 | N#Cc1ccc(Oc2cc(COc3c(F)cc(COP(=O)(N4CC4)N4CC4)cc3F)ccc2[N+](=O)[O-])cc1 [Compound No. 37] | 136 | 12.3 | 
33 | O=C(c1cccc(Oc2cc(COc3c(F)cc(COP(=O)(N4CC4)N4CC4)cc3F)ccc2[N+](=O)[O-])c1)N1CC(F)(F)C1 [Compound No. 38] | 267 | 5.53 | 
34 | N#Cc1cccc(Oc2cc(COc3c(F)cc(COP(=O)(N4CC4)N4CC4)cc3F)ccc2[N+](=O)[O-])c1 [Compound No. 39] | 137 | 7.79 | 
35 | O=[N+]([O-])c1ccc(C(OP(=O)(N2CC2)N2CC2)C(F)(F)F)cc1Oc1ccc2ncccc2c1 (stereo not shown) [Compound No. 40] | > 1000 | 14.7 | 
36 | CN(C(=O)c1ccc(Oc2cc(C(OP(=O)(N3CC3)N3CC3)C(F)(F)F)ccc2[N+](=O)[O-])cc1)c1ccccc1 (stereo not shown) [Compound No. 41] | 341 | 2.54 | 
37 | Cc1nc2ccc(Oc3cc(C(OP(=O)(N4CC4)N4CC4)C(F)(F)F)ccc3[N+](=O)[O-])cc2s1 (stereo not shown) [Compound No. 42] | > 1000 | 29.3 | 
38 | Cn1ncc2cc(Oc3cc(C(OP(=O)(N4CC4)N4CC4)C(F)(F)F)ccc3[N+](=O)[O-])ccc21 (stereo not shown) [Compound No. 43] | 102 | 30.4 | 
39 | O=[N+]([O-])c1ccc(C(OP(=O)(N2CC2)N2CC2)C(F)(F)F)cc1Oc1ccc(-c2ccccc2)cc1 (stereo not shown) [Compound No. 44] | > 1000 | 9.42 | 
40 | O=[N+]([O-])c1ccc(C(OP(=O)(N2CC2)N2CC2)C(F)(F)F)cc1Oc1ccc(C2CCCC2)cc1 (stereo not shown) [Compound No. 47] |  | 8.13 | 
41 | O=[N+]([O-])c1ccc(C(OP(=O)(N2CC2)N2CC2)C(F)(F)F)cc1Oc1ccc(C2CCCCC2)cc1 (stereo not shown) [Compound No. 48] |  | 3.7 | 
42 | O=[N+]([O-])c1ccc(C(OP(=O)(N2CC2)N2CC2)C(F)(F)F)cc1Oc1ccc(C2CCC(F)(F)CC2)cc1 (stereo not shown) [Compound No. 49] | > 1000 | 9.61 | 
